This assay addresses T1, CAMKK2 (Homo sapiens, UniProt Q96RR4).
T1 construct: made in house
Description: CAMKK2 enzyme assay (radiometric, CaMKKtide). It counts as biochemical. As to conditions: for remaining activity at 0.01 µM / remaining activity at 0.1 µM / remaining activity at 1 µM: read-out: PoC (activity remaining).

[1] abbreviates: 8-point full dose response, read-out: IC50.

Read-outs that look alike come from different tables or passages of the source.

T1 sequence (Q96RR4 whole entry): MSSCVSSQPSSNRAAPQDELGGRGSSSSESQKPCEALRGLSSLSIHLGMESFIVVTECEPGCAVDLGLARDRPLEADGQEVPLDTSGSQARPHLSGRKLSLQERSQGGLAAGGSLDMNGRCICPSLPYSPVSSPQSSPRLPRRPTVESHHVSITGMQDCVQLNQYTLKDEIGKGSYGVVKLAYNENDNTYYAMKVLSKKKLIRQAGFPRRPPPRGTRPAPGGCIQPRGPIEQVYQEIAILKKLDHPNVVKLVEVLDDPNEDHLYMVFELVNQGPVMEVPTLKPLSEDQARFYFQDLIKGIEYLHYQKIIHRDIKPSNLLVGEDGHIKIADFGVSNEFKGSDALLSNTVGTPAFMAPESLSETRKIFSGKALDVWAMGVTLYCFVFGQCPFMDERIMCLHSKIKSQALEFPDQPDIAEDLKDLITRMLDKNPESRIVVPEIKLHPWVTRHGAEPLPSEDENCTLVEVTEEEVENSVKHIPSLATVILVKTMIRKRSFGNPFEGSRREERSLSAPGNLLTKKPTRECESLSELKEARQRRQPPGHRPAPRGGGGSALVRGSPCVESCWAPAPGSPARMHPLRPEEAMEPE
Description: CAMKK2 activity was determined by measuring the transfer of radiolabeled phosphate from [γ-^32P]-ATP to a synthetic peptide substrate (CaMKKtide) as previously described [49]. Briefly, purified recombinant CAMKK2 (100 pM) was incubated in assay buffer (50 mM HEPES [pH 7.4], 1 mM DTT, 0.02% [v/v] Brij-35) containing 200 μM CaMKKtide (Genscript), 100 μM CaCl2, 1 μM CaM (Sigma-Aldrich, Castle Hill, NSW, Australia) 200 μM [γ-^32P]-ATP (Perkin Elmer, Boston, MA, USA), 5 mM MgCl2 (Sigma-Aldrich, Castle Hill, NSW, Australia) and various concentrations of inhibitors (0–1 μM) in a standard 30 μl assay for 10 min at 30 °C. Reactions were terminated by spotting 15 μl onto P81 phosphocellulose paper (GE Lifesciences, Paramatta, NSW, Australia) and washing extensively in 1% phosphoric acid (Sigma-Aldrich, Castle Hill, NSW, Australia). Radioactivity was quantified by liquid scintillation counting.

One may read the remaining activity as the signal under treatment as a percentage of the control signal. What is called IC50 is the concentration needed to halve the response being measured. Regarding `COc1cc(N2CCC(N(C)C)CC2)ccc1Nc1ncc(Cl)c(Nc2ccccc2P(C)(C)=O)n1` [ALK-IN-1], the remaining activity at 0.01 µM (0.01 µM inhibitor) was 62%. The remaining activity at 0.1 µM (0.1 µM inhibitor) turned out to be 34%. In addition, for the setting “1.0 µM inhibitor”, the remaining activity at 1 µM was found to be 3%. In addition, the IC50 under setting [1] was determined as 28 nM.
Regarding `COc1cc(N2CCC(N3CCN(C)CC3)CC2)ccc1Nc1ncc(Cl)c(Nc2ccccc2P(C)(C)=O)n1` [AP26113], the remaining activity at 0.01 µM came to 60%, the remaining activity at 0.1 µM was determined as 20% and the remaining activity at 1 µM worked out at 2%.
Regarding `COc1cc(N2CCC(N)CC2)ccc1Nc1ncc(Cl)c(-c2c[nH]c3ccccc23)n1` [AZD 3463], the “PoC (activity remaining)” value reads like this: (0.01 µM inhibitor) 103%; (0.1 µM inhibitor) 74%; (1.0 µM inhibitor) 26%. Moreover, the IC50 under setting [1] is 185 nM.
For `CN1CC[C@H](c2c(O)cc(O)c3c(=O)cc(-c4ccccc4Cl)oc23)[C@H](O)C1` [Alvocidib], the remaining activity at 0.01 µM (0.01 µM inhibitor) amounted to 102%. Besides, the remaining activity at 0.1 µM (0.1 µM inhibitor) was determined as 62%. The remaining activity at 1 µM (1.0 µM inhibitor) came to 29%.
The matching figures for `CC(C)[C@H](CO)Nc1nc(Nc2cc(N)cc(Cl)c2)c2ncn(C(C)C)c2n1` [Aminopurvalanol]: 100%, 80% and 22%.
Turning to `CCN1CCN(c2ccc(Nc3cc(N(C)C(=O)Nc4c(Cl)c(OC)cc(OC)c4Cl)ncn3)cc2)CC1` [BGJ 398], the remaining activity at 0.01 µM (0.01 µM inhibitor) amounted to 100%. Besides, the remaining activity at 0.1 µM (0.1 µM inhibitor) turned out to be 99%. For the same compound, the remaining activity at 1 µM (1.0 µM inhibitor) was determined as 96%.
Regarding `CC[C@@H]1C(=O)N(C)c2cnc(Nc3ccc(C(=O)N[C@H]4CC[C@H](N5CCN(CC6CC6)CC5)CC4)cc3OC)nc2N1C(C)C` [BI6727], the remaining activity at 0.01 µM (0.01 µM inhibitor) came to 104%. Moreover, the remaining activity at 0.1 µM (0.1 µM inhibitor) is 94%. For the same compound, for the setting “1.0 µM inhibitor”, the remaining activity at 1 µM was determined as 75%.
Regarding `O=C1Nc2cc(Br)ccc2/C1=C1/Nc2ccccc2/C1=N\O` [BIO], the “PoC (activity remaining)” value (0.01 µM inhibitor) came to 102%, the “PoC (activity remaining)” value (0.1 µM inhibitor) came to 100% and the “PoC (activity remaining)” value (1.0 µM inhibitor) is listed as 89%.
On to `O=C(NCCCNc1nc(Nc2cccc(NC(=O)N3CCCC3)c2)ncc1I)c1cccs1` [BX795], for which the remaining activity at 0.01 µM (0.01 µM inhibitor) was determined as 97%. Also, where the note is “0.1 µM inhibitor”, the remaining activity at 0.1 µM was found to be 80%. Moreover, where the note is “1.0 µM inhibitor”, the remaining activity at 1 µM was determined as 33%.
Turning to `O=C(Nc1cccc(Nc2ncc(Br)c(NCCc3cnc[nH]3)n2)c1)N1CCCC1` [BX912], the “PoC (activity remaining)” value is, setting by setting: (0.01 µM inhibitor) 100%; (0.1 µM inhibitor) 90%; (1.0 µM inhibitor) 26%.
Take `Cc1cc2c(F)c(Oc3ncnn4cc(OC[C@@H](C)O)c(C)c34)ccc2[nH]1` [Brivanib]: the remaining activity at 0.01 µM (0.01 µM inhibitor) turned out to be 101%. In addition, where the note is “0.1 µM inhibitor”, the remaining activity at 0.1 µM turned out to be 100%. Also, the remaining activity at 1 µM (1.0 µM inhibitor) turned out to be 100%.
As to `Nc1nc(Nc2ccc(S(N)(=O)=O)cc2)nn1C(=S)Nc1c(F)cccc1F` [CDK 1/2 Inhibitor III], it took 19 nM to reach half-maximal inhibition (IC50), the remaining activity at 0.01 µM amounted to 69%, the remaining activity at 0.1 µM is 17% and the remaining activity at 1 µM is 3%.
As for `Cc1c[nH]c(-c2cnc(NCCNc3ccc(C#N)cn3)nc2-c2ccc(Cl)cc2Cl)n1` [CHIR99021], the remaining activity at 0.01 µM (0.01 µM inhibitor) turned out to be 98%. In addition, the remaining activity at 0.1 µM (0.1 µM inhibitor) was 101%. The remaining activity at 1 µM (1.0 µM inhibitor) turned out to be 96%.
In the case of `COCCOc1ccc2c(c1)ncn2-c1ccc2cccc(N3CCC(N)CC3)c2n1` [CP 673451], the remaining activity at 0.01 µM (0.01 µM inhibitor) stood at 88%. For the same compound, the remaining activity at 0.1 µM (0.1 µM inhibitor) amounted to 46%. For the same compound, the remaining activity at 1 µM (1.0 µM inhibitor) was 17%. Moreover, under setting [1], the IC50 stood at 73 nM.
For `COc1cc(N2CCOCC2)ccc1Nc1ncc(F)c(Nc2ccccc2NS(C)(=O)=O)n1` [CZC 25146], the “PoC (activity remaining)” value (0.01 µM inhibitor) worked out at 96%, the “PoC (activity remaining)” value (0.1 µM inhibitor) was found to be 101% and the “PoC (activity remaining)” value (1.0 µM inhibitor) was found to be 93%.
For the compound `CC1(COc2ccc3c(c2)ncn3-c2ccc3cccc(N4CCC(N)CC4)c3n2)COC1` [Crenolanib], the remaining activity at 0.01 µM (0.01 µM inhibitor) worked out at 118%. Moreover, the remaining activity at 0.1 µM (0.1 µM inhibitor) was 92%. Also, the remaining activity at 1 µM (1.0 µM inhibitor) turned out to be 47%.
Taken in the same sequence, the figures for `c1cc(-c2cnn3cc(-c4ccc(OCCN5CCCCC5)cc4)cnc23)ccn1` [Dorsomorphin] were 100%, 96% and 58%.
The matching figures for `O=C(Nc1nc2cccc(-c3ccc(CN4CCS(=O)(=O)CC4)cc3)n2n1)C1CC1` [Filgotinib]: 96%, 86% and 72%.
Taken in the same sequence, the figures for `C[C@@H](Oc1cc(-n2cnc3ccc(CN4CCN(C)CC4)cc32)sc1C(N)=O)c1ccccc1C(F)(F)F` [GSK461364] were 95%, 96% and 92%.
With `O=C1NC(=O)/C(=C/c2ccc3nccc(-c4ccncc4)c3c2)S1` [GSK1059615], where the note is “0.01 µM inhibitor”, the remaining activity at 0.01 µM was determined as 92%. For the same compound, the remaining activity at 0.1 µM (0.1 µM inhibitor) amounted to 81%. Besides, under “1.0 µM inhibitor”, the remaining activity at 1 µM was 34%.
On to `CCc1nc(C(N)=O)c(Nc2ccc(N3CCC(N4CCN(C)CC4)CC3)c(OC)c2)nc1NC1CCOCC1` [Gilteritinib], for which the remaining activity at 0.01 µM (0.01 µM inhibitor) is 84%. Moreover, for the setting “0.1 µM inhibitor”, the remaining activity at 0.1 µM is 74%. Further, the remaining activity at 1 µM (1.0 µM inhibitor) worked out at 18%. Under setting [1], the IC50 worked out at 204 nM.
Take `Cn1c2ccccc2c2c3c(c4c5ccccc5n(CCC#N)c4c21)CNC3=O` [Go6976]: the remaining activity at 0.01 µM (0.01 µM inhibitor) turned out to be 97%. For the same compound, where the note is “0.1 µM inhibitor”, the remaining activity at 0.1 µM is 92%. In addition, the remaining activity at 1 µM (1.0 µM inhibitor) was 80%.
The matching figures for `CCS(=O)(=O)Nc1ccc2c(c1)/C(=C(/Nc1ccc(CN3CCCCC3)cc1)c1ccccc1)C(=O)N2` [Hesperadin]: 99%, 95% and 84%.
Regarding `COC(=O)[C@@]1(O)C[C@H]2O[C@]1(C)n1c3ccccc3c3c4c(c5c6ccccc6n2c5c31)C(=O)NC4` [K252a], the “PoC (activity remaining)” value (0.01 µM inhibitor) was determined as 99% and the “PoC (activity remaining)” value (1.0 µM inhibitor) turned out to be 31%.
In the case of `O=C(c1ccc(/C=C/c2n[nH]c3ccccc23)cc1)N1CCNCC1` [KW2449], for the setting “0.01 µM inhibitor”, the remaining activity at 0.01 µM amounted to 96%. In addition, where the note is “0.1 µM inhibitor”, the remaining activity at 0.1 µM was 84%. In addition, the remaining activity at 1 µM (1.0 µM inhibitor) amounted to 42%.
As for `c1ccc2c(-c3cnn4cc(-c5ccc(N6CCNCC6)cc5)cnc34)ccnc2c1` [LDN 193189], the “PoC (activity remaining)” value is, setting by setting: (0.01 µM inhibitor) 68%; (0.1 µM inhibitor) 62%; (1.0 µM inhibitor) 50%. Under setting [1], the IC50 stood at 146 nM.
`C[C@]12O[C@H](C[C@]1(O)CO)n1c3ccccc3c3c4c(c5c6ccccc6n2c5c31)CNC4=O` [Lestaurtinib]: the remaining activity at 0.01 µM was 64%, the remaining activity at 0.1 µM worked out at 33% and the remaining activity at 1 µM worked out at 3%.
With `C=CCn1c(=O)c2cnc(Nc3ccc(N4CCN(C)CC4)cc3)nc2n1-c1cccc(C(C)(C)O)n1` [MK1775], the remaining activity at 0.01 µM (0.01 µM inhibitor) stood at 101%. For the same compound, the remaining activity at 0.1 µM (0.1 µM inhibitor) is 99%. Also, the remaining activity at 1 µM (1.0 µM inhibitor) is 99%.
As to `Cc1ncc(CCCN(C)C)cc1Nc1ncc2c(n1)-c1ccc(C(F)(F)F)cc1NC(=S)C2` [MLN 0905], the “PoC (activity remaining)” value was determined as 99% (0.01 µM inhibitor), 95% (0.1 µM inhibitor) and 86% (1.0 µM inhibitor).
Take `O=C(NCCCNc1nc(Nc2cccc(CN3CCOCC3)c2)ncc1C1CC1)C1CCC1` [MRT67307]: the “PoC (activity remaining)” value reads like this: (0.01 µM inhibitor) 92%; (0.1 µM inhibitor) 86%; (1.0 µM inhibitor) 35%.
As to `CO[C@@H]1[C@H](N(C)C(=O)c2ccccc2)C[C@H]2O[C@]1(C)n1c3ccccc3c3c4c(c5c6ccccc6n2c5c31)C(=O)NC4` [Midostaurin], the remaining activity at 0.01 µM came to 97%, the remaining activity at 0.1 µM amounted to 82% and the remaining activity at 1 µM was determined as 38%.
Regarding `CNC(=O)c1nn(C)c2c1C(C)(C)Cc1cnc(Nc3ccc(N4CCN(C)CC4)cc3)nc1-2` [Milciclib], the remaining activity at 0.01 µM (0.01 µM inhibitor) is 107%. The remaining activity at 0.1 µM (0.1 µM inhibitor) was 105%. Under “1.0 µM inhibitor”, the remaining activity at 1 µM is 76%.
For `CC(=O)c1cnc2ccc(-c3cc(Cl)c(O)c(Cl)c3)nc2c1N[C@H]1CC[C@H](CN(C)C)CC1` [OTSSP167], under “0.01 µM inhibitor”, the remaining activity at 0.01 µM was determined as 84%. Besides, where the note is “0.1 µM inhibitor”, the remaining activity at 0.1 µM was 49%. Where the note is “1.0 µM inhibitor”, the remaining activity at 1 µM was determined as 0%. For the same compound, the IC50 under setting [1] came out at 86 nM.
As to `Cc1nc(Nc2[nH]nc3c2CN(C(=O)N[C@H](CN(C)C)c2ccccc2)C3(C)C)c2sccc2n1` [PF3758309], the remaining activity at 0.01 µM (0.01 µM inhibitor) worked out at 95%. Besides, where the note is “0.1 µM inhibitor”, the remaining activity at 0.1 µM was found to be 78%. The remaining activity at 1 µM (1.0 µM inhibitor) worked out at 71%.
As for `CC(=O)NCC(=O)N1[C@@H]2CC[C@H]1c1ccc(Nc3ncc(C(F)(F)F)c(NC4CCC4)n3)cc12` [PF03814735], the “PoC (activity remaining)” value was 92% (0.01 µM inhibitor), 70% (0.1 µM inhibitor) and 20% (1.0 µM inhibitor). The IC50 under setting [1] came to 227 nM.
Turning to `Cc1[nH]c(/C=C2\C(=O)Nc3ccc(S(=O)(=O)Cc4c(Cl)cccc4Cl)cc32)c(C)c1C(=O)N1CCC[C@@H]1CN1CCCC1` [PHA665752], the remaining activity at 0.01 µM (0.01 µM inhibitor) was 109%. In addition, under “0.1 µM inhibitor”, the remaining activity at 0.1 µM is 93%. The remaining activity at 1 µM (1.0 µM inhibitor) came to 67%.
Take `C1=C/COCc2cc(ccc2OCCN2CCCC2)Nc2nccc(n2)-c2cccc(c2)COC/1` [Pacritinib]: under “0.01 µM inhibitor”, the remaining activity at 0.01 µM stood at 96%. In addition, for the setting “0.1 µM inhibitor”, the remaining activity at 0.1 µM stood at 78%. For the setting “1.0 µM inhibitor”, the remaining activity at 1 µM was determined as 31%.
The matching figures for `CCOc1cc2ncc(C#N)c(Nc3ccc(F)c(Cl)c3)c2cc1NC(=O)/C=C/CN(C)C` [Pelitinib]: 100%, 84% and 60%.
On to `CNC(=O)c1cc(Oc2ccc(NC(=O)Nc3cc(C(C)(C)C)nn3-c3ccc4ncccc4c3)c(F)c2)ccn1` [Rebasitinib], for which the “PoC (activity remaining)” value by setting is: (0.01 µM inhibitor) 95%; (0.1 µM inhibitor) 93%; (1.0 µM inhibitor) 81%.

These data come from PMC7024175, “In Depth Analysis of Kinase Cross Screening Data to Identify CAMKK2 Inhibitory Scaffolds” (Molecules, 2020).
